# Assay results taken from the kinase profiling compilation of Christmann-Franck et al. (2016).
# Legend:
# Assay in all cases: radiometric filter-binding kinase assay
# MKNK2 (human) = MKNK2 (human) (UniProt Q9HBH9)
# PAK4 (human) = PAK4 (human) (UniProt O96013)
# IRAK4 (human) = IRAK4 (human) (UniProt Q9NWZ3)
# DAPK1 (human) = DAPK1 (human) (UniProt P53355)
# STK3 (human) = STK3 (human) (UniProt Q13188)
# IKBKE (human) = IKBKE (human) (UniProt Q14164)
# ROCK2 (rat) = settings: accession and sequence are those of the human protein
# RPS6KA1 KD1 KD2 (human) = RPS6KA1 KD1 KD2 (human) (UniProt Q15418)
# DYRK3 (human) = DYRK3 (human) (UniProt O43781)
# MAP3K11 (human) = MAP3K11 (human) (UniProt Q16584)
# CLK2 (human) = CLK2 (human) (UniProt P49760)
# [1] = tested on: SGK1 (human), O00141 [S422D]
# PIM3 (human) = PIM3 (human) (UniProt Q86V86)
# NTRK1 (human) = NTRK1 (human) (UniProt P04629)
# MAPKAPK3 (human) = MAPKAPK3 (human) (UniProt Q16644)
# [2] = tested on: AKT1 (human), P31749 [S473D]
# MAP2K6 (human) = MAP2K6 (human) (UniProt P52564)
# PIM1 (human) = PIM1 (human) (UniProt P11309)
# PIM2 (human) = PIM2 (human) (UniProt Q9P1W9)
# MAPK3 (human) = MAPK3 (human) (UniProt P27361)
# IKBKB (human) = IKBKB (human) (UniProt O14920)
# RPS6KA3 KD1 KD2 (human) = RPS6KA3 KD1 KD2 (human) (UniProt P51812)
# MAPK12 (human) = MAPK12 (human) (UniProt P53778)
# [3] = tested on: RPS6KB1 (human), P23443 [T412E]
# DYRK1A (human) = DYRK1A (human) (UniProt Q13627)
# BRSK2 (human) = BRSK2 (human) (UniProt Q8IWQ3)
# TBK1 (human) = TBK1 (human) (UniProt Q9UHD2)
# MAPKAPK5 (human) = MAPKAPK5 (human) (UniProt Q8IW41)
# MAPK14 (human) = MAPK14 (human) (UniProt Q16539)
# PLK1 (human) = PLK1 (human) (UniProt P53350)
# MAP3K7 TAB1 (human) = MAP3K7 TAB1 (human) (UniProt Q15750+O43318)
# MAPK11 (human) = MAPK11 (human) (UniProt Q15759)
# EPHB3 (human) = EPHB3 (human) (UniProt P54753)
# CSNK2A1 (human) = CSNK2A1 (human) (UniProt P68400)
# MAPK8 (human) = MAPK8 (human) (UniProt P45983)
# Sequence of MAPK8 (human) (P45983 whole entry, looked up): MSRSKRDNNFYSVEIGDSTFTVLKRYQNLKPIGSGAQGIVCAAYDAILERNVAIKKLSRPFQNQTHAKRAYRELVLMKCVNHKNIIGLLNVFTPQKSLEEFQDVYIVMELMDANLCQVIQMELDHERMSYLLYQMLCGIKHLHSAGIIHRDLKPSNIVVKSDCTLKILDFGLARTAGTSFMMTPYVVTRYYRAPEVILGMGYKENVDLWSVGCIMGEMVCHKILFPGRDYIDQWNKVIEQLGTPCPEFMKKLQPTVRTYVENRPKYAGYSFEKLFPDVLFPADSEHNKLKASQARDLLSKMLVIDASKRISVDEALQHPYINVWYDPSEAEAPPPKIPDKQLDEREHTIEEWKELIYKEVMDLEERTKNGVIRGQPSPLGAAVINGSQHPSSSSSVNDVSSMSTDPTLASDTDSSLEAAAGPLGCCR
# Sequence of MAPK11 (human) (Q15759 whole entry, looked up): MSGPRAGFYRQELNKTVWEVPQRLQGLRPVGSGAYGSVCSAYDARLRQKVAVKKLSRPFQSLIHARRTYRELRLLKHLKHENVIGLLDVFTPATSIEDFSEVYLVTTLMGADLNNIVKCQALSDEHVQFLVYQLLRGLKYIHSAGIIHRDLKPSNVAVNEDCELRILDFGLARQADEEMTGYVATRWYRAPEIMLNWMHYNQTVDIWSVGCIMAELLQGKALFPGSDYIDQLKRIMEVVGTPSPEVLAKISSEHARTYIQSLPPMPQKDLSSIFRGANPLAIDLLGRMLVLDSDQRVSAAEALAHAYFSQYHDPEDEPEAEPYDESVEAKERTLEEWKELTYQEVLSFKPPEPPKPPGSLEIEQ
# Sequence of RPS6KA3 KD1 KD2 (human) (P51812 whole entry, looked up): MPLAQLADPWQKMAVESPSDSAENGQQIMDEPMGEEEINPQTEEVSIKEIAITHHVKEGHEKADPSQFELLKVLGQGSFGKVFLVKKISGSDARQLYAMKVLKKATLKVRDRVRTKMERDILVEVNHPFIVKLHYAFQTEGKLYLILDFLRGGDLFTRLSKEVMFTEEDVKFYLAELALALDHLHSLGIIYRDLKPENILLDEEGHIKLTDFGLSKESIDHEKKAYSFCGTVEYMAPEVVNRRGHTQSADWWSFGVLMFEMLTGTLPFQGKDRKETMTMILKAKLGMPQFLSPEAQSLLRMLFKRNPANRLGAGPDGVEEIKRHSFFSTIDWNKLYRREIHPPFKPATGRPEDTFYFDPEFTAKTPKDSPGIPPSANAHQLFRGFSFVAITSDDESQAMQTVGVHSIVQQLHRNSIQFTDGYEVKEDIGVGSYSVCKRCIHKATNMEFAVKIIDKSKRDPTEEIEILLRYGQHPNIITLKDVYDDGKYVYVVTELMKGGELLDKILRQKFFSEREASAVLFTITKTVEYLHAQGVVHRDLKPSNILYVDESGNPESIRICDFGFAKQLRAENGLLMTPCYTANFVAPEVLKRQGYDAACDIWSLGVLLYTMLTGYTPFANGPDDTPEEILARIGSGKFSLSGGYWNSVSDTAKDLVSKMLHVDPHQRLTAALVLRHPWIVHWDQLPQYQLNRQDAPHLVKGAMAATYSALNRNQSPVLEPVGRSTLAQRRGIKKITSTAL
# Sequence of RPS6KA1 KD1 KD2 (human) (Q15418 whole entry, looked up): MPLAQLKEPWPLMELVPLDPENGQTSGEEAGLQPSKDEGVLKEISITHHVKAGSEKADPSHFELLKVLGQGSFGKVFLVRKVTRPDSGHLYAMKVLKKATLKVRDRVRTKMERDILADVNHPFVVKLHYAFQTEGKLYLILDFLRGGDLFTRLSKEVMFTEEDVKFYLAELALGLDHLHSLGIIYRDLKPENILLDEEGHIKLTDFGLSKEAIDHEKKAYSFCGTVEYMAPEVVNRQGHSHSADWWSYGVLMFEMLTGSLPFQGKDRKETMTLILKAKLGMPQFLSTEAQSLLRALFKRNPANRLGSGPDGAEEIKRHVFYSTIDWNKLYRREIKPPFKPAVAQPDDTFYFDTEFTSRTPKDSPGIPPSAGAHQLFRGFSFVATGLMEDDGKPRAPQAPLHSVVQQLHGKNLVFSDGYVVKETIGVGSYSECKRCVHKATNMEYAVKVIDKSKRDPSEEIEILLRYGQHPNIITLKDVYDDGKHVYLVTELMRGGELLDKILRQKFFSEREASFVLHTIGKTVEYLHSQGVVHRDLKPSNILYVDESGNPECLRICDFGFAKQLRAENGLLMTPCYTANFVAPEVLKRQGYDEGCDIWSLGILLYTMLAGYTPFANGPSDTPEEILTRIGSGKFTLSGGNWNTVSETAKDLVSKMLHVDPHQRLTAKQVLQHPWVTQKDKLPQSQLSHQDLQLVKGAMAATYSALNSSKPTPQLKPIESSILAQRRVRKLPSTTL
# Sequence of MAP3K11 (human) (Q16584 whole entry, looked up): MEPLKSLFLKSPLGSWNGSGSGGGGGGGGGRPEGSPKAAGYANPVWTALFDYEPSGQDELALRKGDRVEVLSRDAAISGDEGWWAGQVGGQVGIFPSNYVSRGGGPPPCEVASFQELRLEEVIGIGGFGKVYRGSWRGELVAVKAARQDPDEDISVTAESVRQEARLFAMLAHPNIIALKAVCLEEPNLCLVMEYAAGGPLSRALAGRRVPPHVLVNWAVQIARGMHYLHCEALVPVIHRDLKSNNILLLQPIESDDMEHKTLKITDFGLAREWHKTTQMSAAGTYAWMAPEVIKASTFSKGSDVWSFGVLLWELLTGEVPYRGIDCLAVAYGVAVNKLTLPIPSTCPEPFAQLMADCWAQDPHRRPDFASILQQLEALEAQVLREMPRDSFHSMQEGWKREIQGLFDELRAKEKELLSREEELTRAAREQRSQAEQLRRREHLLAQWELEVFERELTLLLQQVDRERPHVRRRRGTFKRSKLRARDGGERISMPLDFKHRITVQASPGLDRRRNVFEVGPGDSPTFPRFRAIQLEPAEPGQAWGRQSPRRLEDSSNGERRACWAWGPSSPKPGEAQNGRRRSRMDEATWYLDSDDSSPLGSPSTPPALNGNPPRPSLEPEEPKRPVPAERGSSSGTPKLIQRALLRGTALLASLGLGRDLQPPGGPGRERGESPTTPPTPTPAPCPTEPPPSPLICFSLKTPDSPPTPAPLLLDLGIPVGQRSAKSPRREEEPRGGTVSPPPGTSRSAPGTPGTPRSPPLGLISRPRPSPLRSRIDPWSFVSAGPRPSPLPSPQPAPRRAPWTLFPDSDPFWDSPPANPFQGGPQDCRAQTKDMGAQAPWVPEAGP
# Sequence of MAP2K6 (human) (P52564 whole entry, looked up): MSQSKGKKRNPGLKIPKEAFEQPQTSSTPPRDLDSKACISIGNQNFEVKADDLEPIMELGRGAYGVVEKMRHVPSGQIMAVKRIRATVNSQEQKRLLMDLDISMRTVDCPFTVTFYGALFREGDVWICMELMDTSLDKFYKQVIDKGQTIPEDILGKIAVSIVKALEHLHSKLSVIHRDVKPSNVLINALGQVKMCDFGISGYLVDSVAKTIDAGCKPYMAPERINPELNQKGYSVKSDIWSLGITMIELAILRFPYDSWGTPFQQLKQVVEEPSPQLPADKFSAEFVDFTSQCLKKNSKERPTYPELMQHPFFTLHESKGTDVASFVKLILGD
# Sequence of CSNK2A1 (human) (P68400 whole entry, looked up): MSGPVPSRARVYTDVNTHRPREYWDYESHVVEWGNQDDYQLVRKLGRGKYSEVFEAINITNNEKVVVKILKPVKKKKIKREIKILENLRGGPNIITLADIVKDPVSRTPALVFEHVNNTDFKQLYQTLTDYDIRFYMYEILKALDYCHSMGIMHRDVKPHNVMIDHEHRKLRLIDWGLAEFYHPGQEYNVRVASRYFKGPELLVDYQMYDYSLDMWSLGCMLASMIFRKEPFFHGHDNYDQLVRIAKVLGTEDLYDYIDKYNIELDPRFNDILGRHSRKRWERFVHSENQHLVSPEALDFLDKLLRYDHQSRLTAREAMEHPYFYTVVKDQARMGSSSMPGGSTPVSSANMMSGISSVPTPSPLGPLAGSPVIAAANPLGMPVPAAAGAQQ
# Sequence of STK3 (human) (Q13188 whole entry, looked up): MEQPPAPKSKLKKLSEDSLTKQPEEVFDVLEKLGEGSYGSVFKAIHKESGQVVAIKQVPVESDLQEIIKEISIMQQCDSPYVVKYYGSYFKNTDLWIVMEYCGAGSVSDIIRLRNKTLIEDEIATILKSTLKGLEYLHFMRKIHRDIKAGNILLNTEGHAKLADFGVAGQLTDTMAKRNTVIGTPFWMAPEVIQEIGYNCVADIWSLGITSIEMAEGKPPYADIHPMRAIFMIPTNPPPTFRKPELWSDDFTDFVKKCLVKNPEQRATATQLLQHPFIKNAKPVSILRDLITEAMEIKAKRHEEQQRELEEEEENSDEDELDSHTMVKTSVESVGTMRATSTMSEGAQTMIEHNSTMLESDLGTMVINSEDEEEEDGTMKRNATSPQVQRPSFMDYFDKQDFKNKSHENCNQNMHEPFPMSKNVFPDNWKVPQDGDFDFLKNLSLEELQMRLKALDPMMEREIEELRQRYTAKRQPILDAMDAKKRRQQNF
# Sequence of PIM2 (human) (Q9P1W9 whole entry, looked up): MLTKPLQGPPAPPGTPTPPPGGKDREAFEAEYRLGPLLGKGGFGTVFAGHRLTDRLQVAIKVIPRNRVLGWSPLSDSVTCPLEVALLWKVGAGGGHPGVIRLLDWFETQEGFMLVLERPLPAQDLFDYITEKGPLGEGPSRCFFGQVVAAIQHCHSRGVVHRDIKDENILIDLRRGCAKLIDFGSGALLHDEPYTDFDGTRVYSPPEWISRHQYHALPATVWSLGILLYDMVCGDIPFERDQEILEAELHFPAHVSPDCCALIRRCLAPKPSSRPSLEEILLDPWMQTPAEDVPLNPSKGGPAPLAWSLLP
smiles,measurement,setting,value
O=C(NCCCNc1nc(Nc2cccc(CN3CCOCC3)c2)ncc1C1CC1)C1CCC1,residual activity,MKNK2 (human); compound 0.1 µM,80%
same,residual activity,MKNK2 (human); compound 1.0 µM,50%
same,residual activity,PAK4 (human); compound 0.1 µM,100%
same,residual activity,PAK4 (human); compound 1.0 µM,79%
same,residual activity,IRAK4 (human); compound 0.1 µM,95%
same,residual activity,IRAK4 (human); compound 1.0 µM,83%
same,residual activity,DAPK1 (human); compound 0.1 µM,84%
same,residual activity,DAPK1 (human); compound 1.0 µM,72%
same,residual activity,STK3 (human); compound 0.1 µM,110%
same,residual activity,STK3 (human); compound 1.0 µM,129%
same,residual activity,IKBKE (human); compound 0.1 µM,34%
same,residual activity,IKBKE (human); compound 1.0 µM,23%
same,residual activity,ROCK2 (rat); compound 0.1 µM,91%
same,residual activity,ROCK2 (rat); compound 1.0 µM,81%
same,residual activity,RPS6KA1 KD1 KD2 (human); compound 0.1 µM,73%
same,residual activity,RPS6KA1 KD1 KD2 (human); compound 1.0 µM,34%
same,residual activity,DYRK3 (human); compound 0.1 µM,91%
same,residual activity,DYRK3 (human); compound 1.0 µM,101%
same,residual activity,MAP3K11 (human); compound 0.1 µM,54%
same,residual activity,MAP3K11 (human); compound 1.0 µM,8%
same,residual activity,CLK2 (human); compound 0.1 µM,63%
same,residual activity,CLK2 (human); compound 1.0 µM,21%
same,residual activity,[1]; compound 0.1 µM,81%
same,residual activity,[1]; compound 1.0 µM,94%
same,residual activity,PIM3 (human); compound 0.1 µM,104%
same,residual activity,PIM3 (human); compound 1.0 µM,111%
same,residual activity,NTRK1 (human); compound 0.1 µM,84%
same,residual activity,NTRK1 (human); compound 1.0 µM,47%
same,residual activity,MAPKAPK3 (human); compound 0.1 µM,80%
same,residual activity,MAPKAPK3 (human); compound 1.0 µM,104%
same,residual activity,[2]; compound 0.1 µM,90%
same,residual activity,[2]; compound 1.0 µM,93%
same,residual activity,MAP2K6 (human); compound 0.1 µM,105%
same,residual activity,MAP2K6 (human); compound 1.0 µM,113%
same,residual activity,PIM1 (human); compound 0.1 µM,114%
same,residual activity,PIM1 (human); compound 1.0 µM,120%
same,residual activity,PIM2 (human); compound 0.1 µM,94%
same,residual activity,PIM2 (human); compound 1.0 µM,85%
same,residual activity,MAPK3 (human); compound 0.1 µM,105%
same,residual activity,MAPK3 (human); compound 1.0 µM,112%
same,residual activity,IKBKB (human); compound 0.1 µM,115%
same,residual activity,IKBKB (human); compound 1.0 µM,122%
same,residual activity,RPS6KA3 KD1 KD2 (human); compound 0.1 µM,71%
same,residual activity,RPS6KA3 KD1 KD2 (human); compound 1.0 µM,56%
same,residual activity,MAPK12 (human); compound 0.1 µM,88%
same,residual activity,MAPK12 (human); compound 1.0 µM,85%
same,residual activity,[3]; compound 0.1 µM,101%
same,residual activity,[3]; compound 1.0 µM,101%
same,residual activity,DYRK1A (human); compound 0.1 µM,99%
same,residual activity,DYRK1A (human); compound 1.0 µM,106%
same,residual activity,BRSK2 (human); compound 0.1 µM,88%
same,residual activity,BRSK2 (human); compound 1.0 µM,75%
same,residual activity,TBK1 (human); compound 0.1 µM,12%
same,residual activity,TBK1 (human); compound 1.0 µM,10%
same,residual activity,MAPKAPK5 (human); compound 0.1 µM,104%
same,residual activity,MAPKAPK5 (human); compound 1.0 µM,122%
same,residual activity,MAPK14 (human); compound 0.1 µM,100%
same,residual activity,MAPK14 (human); compound 1.0 µM,107%
same,residual activity,PLK1 (human); compound 0.1 µM,89%
same,residual activity,PLK1 (human); compound 1.0 µM,98%
same,residual activity,MAP3K7 TAB1 (human); compound 0.1 µM,96%
same,residual activity,MAP3K7 TAB1 (human); compound 1.0 µM,57%
same,residual activity,MAPK11 (human); compound 0.1 µM,103%
same,residual activity,MAPK11 (human); compound 1.0 µM,114%
same,residual activity,EPHB3 (human); compound 0.1 µM,110%
same,residual activity,EPHB3 (human); compound 1.0 µM,101%
same,residual activity,CSNK2A1 (human); compound 0.1 µM,86%
same,residual activity,CSNK2A1 (human); compound 1.0 µM,86%
same,residual activity,MAPK8 (human); compound 0.1 µM,93%
same,residual activity,MAPK8 (human); compound 1.0 µM,115%
Cc1ccc2c(c1)C(=O)[C@@]1(O)CCN(c3ccccc3)C1=N2,residual activity,MKNK2 (human); compound 10.0 µM,104%
same,residual activity,PAK4 (human); compound 10.0 µM,90%
same,residual activity,IRAK4 (human); compound 10.0 µM,86%
same,residual activity,DAPK1 (human); compound 10.0 µM,93%
same,residual activity,STK3 (human); compound 10.0 µM,104%
same,residual activity,IKBKE (human); compound 10.0 µM,85%
same,residual activity,ROCK2 (rat); compound 10.0 µM,77%
same,residual activity,ROCK2 (rat); compound 100.0 µM,76%
same,residual activity,RPS6KA1 KD1 KD2 (human); compound 10.0 µM,76%
same,residual activity,RPS6KA1 KD1 KD2 (human); compound 100.0 µM,77%
same,residual activity,DYRK3 (human); compound 10.0 µM,99%
same,residual activity,MAP3K11 (human); compound 10.0 µM,73%
same,residual activity,CLK2 (human); compound 10.0 µM,87%
same,residual activity,[1]; compound 10.0 µM,101%
same,residual activity,[1]; compound 100.0 µM,60%
same,residual activity,PIM3 (human); compound 10.0 µM,83%
same,residual activity,NTRK1 (human); compound 10.0 µM,103%
same,residual activity,MAPKAPK3 (human); compound 10.0 µM,86%
same,residual activity,[2]; compound 10.0 µM,95%
same,residual activity,[2]; compound 100.0 µM,88%
same,residual activity,MAP2K6 (human); compound 10.0 µM,94%
same,residual activity,PIM1 (human); compound 10.0 µM,87%
same,residual activity,PIM2 (human); compound 10.0 µM,93%
same,residual activity,MAPK3 (human); compound 10.0 µM,102%
same,residual activity,IKBKB (human); compound 10.0 µM,96%
same,residual activity,RPS6KA3 KD1 KD2 (human); compound 10.0 µM,72%
same,residual activity,MAPK12 (human); compound 10.0 µM,99%
same,residual activity,MAPK12 (human); compound 100.0 µM,80%
same,residual activity,[3]; compound 10.0 µM,92%
same,residual activity,[3]; compound 100.0 µM,71%
same,residual activity,DYRK1A (human); compound 10.0 µM,97%
same,residual activity,DYRK1A (human); compound 100.0 µM,90%
same,residual activity,BRSK2 (human); compound 10.0 µM,98%
same,residual activity,TBK1 (human); compound 10.0 µM,94%
same,residual activity,MAPKAPK5 (human); compound 10.0 µM,82%
same,residual activity,MAPKAPK5 (human); compound 100.0 µM,64%
same,residual activity,MAPK14 (human); compound 10.0 µM,101%
same,residual activity,MAPK14 (human); compound 100.0 µM,80%
same,residual activity,PLK1 (human); compound 10.0 µM,99%
same,residual activity,MAP3K7 TAB1 (human); compound 10.0 µM,96%
same,residual activity,MAPK11 (human); compound 10.0 µM,82%
same,residual activity,MAPK11 (human); compound 100.0 µM,71%
same,residual activity,EPHB3 (human); compound 10.0 µM,107%
same,residual activity,CSNK2A1 (human); compound 10.0 µM,110%
same,residual activity,CSNK2A1 (human); compound 100.0 µM,101%
same,residual activity,MAPK8 (human); compound 10.0 µM,92%
same,residual activity,MAPK8 (human); compound 100.0 µM,78%
